For 8 molecules, IC50 and tissue uptake results are on record in patent US20240317780A1, “RADIOPHARMACEUTICAL SOMATOSTATIN RECEPTOR LIGANDS AND PRECURSORS THEREOF” (Technische Universität München, priority 2021, published 2024).

Read-outs that look alike come from different tables or passages of the source.

One series concerns the target T1, SST2 (Homo sapiens, UniProt P30874).
T1 construct: expressed in transfected cells; host or cells: CHO (Chinese hamster ovary) cells
Kind of series: Determination of IC50: competitive binding against [125I]TOC on SST2-transfected CHO cells. The settings on record: [125I]TOC reference radioligand, 60 min room temperature. The procedure: The SST2-transfected CHO cells were cultivated in Dulbecco's Modified Eagle Medium/Nutrient Mixture F-12 (DMEM/F-12) with Glutamax-I (1:1) (Gibco), supplemented with 10% fetal calf serum (FCS) and maintained at 37° C. in a humidified 5% CO2 atmosphere. […] After removal of the culture medium, the cells were treated once with 300 μL of HBSS-B (Hank's balanced salt solution, Biochrom, Berlin, Germany, with addition of 1% bovine serum albumin (BSA)) and left with 200 μL HBSS-B. Next, 25 μL per well of solutions, containing either HBSS-B (control) or the respective ligand in increasing concentration (10^−10-10^−4 M in HBSS-B, were added with subsequent addition of 25 μL of
[^125I]TOC ([^125I]Tyr^3-Octreotide) (1.0 nM) in HBSS-B. Each concentration is investigated in triplicate. After 60 min incubation at room temperature, the experiment was terminated by removal of the assay medium and consecutive rinsing with 300 μL of cold PBS. The media of both steps were combined in one fraction and represent the amount of unbound radioligand.
Afterwards, the cells were lysed with 300 μL of 1 M NaOH and united with the 300 μL 1 M NaOH of the following wash step. Quantification of bound and unbound radioligand was accomplished in a γ-counter.

Series [1] is described as follows: Biodistribution of 18F-labeled SST2 ligands in AR42J tumor-bearing mice. The series is classed as in vivo. The settings on record: female, CD1 nu/nu, mouse, iv, total radioactivity, 1 h post injection, tail vein. The procedure:
All animal experiments were conducted in accordance with general animal welfare regulations in Germany and the institutional guidelines for the care and use of animals. To establish tumor xenografts, AR42J cells (5×10^6 cells/100 μL) were suspended in Dulbecco modified Eagle medium/Nutrition Mixture F-12 with Glutamax-1 (1:1) and inoculated subcutaneously onto the right shoulder of 8 weeks old, female CD1 nu/nu mice (Charles River, Sulzfeld, Germany). Mice were used for experiments when tumors had grown to a diameter of 5-9 mm (7-15 days after inoculation).
Approximately 0.5-2.0 MBq (0.05-0.25 nmol) of the ^18F-labeled SST2-ligands were injected into the tail vein of AR42J tumor-bearing female CD1 nu/nu mice and sacrificed after 1 h post injection (n=3-5). Selected organs were removed, weighted and measured in a γ-counter.
The Tables 4, 5, and 6 summarize the results of the in vivo mouse experiments. For all biodistribution studies, female CD1 nu/nu mice with AR42J tumor xenografts, were used and sacrificed 1 h post injection.

T1 sequence (P30874 whole entry, species assumed): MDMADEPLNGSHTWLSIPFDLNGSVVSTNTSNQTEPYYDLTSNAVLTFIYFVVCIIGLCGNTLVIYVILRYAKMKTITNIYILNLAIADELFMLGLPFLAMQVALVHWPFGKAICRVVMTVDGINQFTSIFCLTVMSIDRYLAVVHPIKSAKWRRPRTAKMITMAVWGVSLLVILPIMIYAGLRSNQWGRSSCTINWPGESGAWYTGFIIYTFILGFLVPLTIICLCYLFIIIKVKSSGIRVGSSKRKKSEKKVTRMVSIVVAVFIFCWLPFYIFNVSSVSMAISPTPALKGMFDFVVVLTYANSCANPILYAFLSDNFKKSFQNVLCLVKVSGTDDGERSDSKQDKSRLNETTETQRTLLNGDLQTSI

The IC50 is the midpoint of a concentration-inhibition curve. High values mean weaker potency in that assay, low ones greater potency in that assay. Turning to `C[C@@H](O)[C@H](NC(=O)C1CSSCC(NC(=O)C(Cc2ccccc2)NC(=O)CNC(=O)CNC(=O)CNC(=O)C(CC(=O)O)NC(=O)[C@@H](CC(=O)O)NC(=O)C(CNC(=O)CN2CCN(CC(=O)O)CCN(CC(=O)O)CCN(CC(=O)O)CC2)NC(=O)C[N+](C)(C)Cc2ccc([Si](F)(C(C)(C)C)C(C)(C)C)cc2)C(=O)N[C@@H](Cc2ccc(O)cc2)C(=O)NC(Cc2c[nH]c3ccccc23)C(=O)N[C@@H](CCCCN)C(=O)N[C@@H]([C@@H](C)O)C(=O)N1)C(=O)O` (stereo partly drawn) (natGa complex, metal not drawn) [[Ga]50], the IC50 at SST2 amounted to 3.01 ± 0.03 nM. The tissue uptake at 1 h was found to be 31.8 ± 2.49 %ID/g in series [1] (AR42J tumor, AR42J tumor, read-out: Tumor % ID/g ± SD); 2.39 ± 0.53 %ID/g in series [1] (adrenal glands, read-out: Adrenal glands % ID/g ± SD); 0.5 ± 0.21 %ID/g in series [1] (blood, read-out: Blood % ID/g ± SD); 1.23 ± 0.41 %ID/g in series [1] (bone, read-out: Bone % ID/g ± SD); 0.27 ± 0.03 %ID/g in series [1] (heart, read-out: Heart % ID/g ± SD); 1.84 ± 0.45 %ID/g in series [1] (intestine, read-out: Intestine % ID/g ± SD). The tissue uptake at 1 h in series [1] (kidneys, read-out: Kidneys % ID/g ± SD) came out at 12.3 ± 3.4 %ID/g; in series [1] (liver, read-out: Liver % ID/g ± SD), 1.22 ± 0.18 %ID/g; in series [1] (lung, read-out: Lung % ID/g ± SD), 3.73 ± 0.57 %ID/g; in series [1] (muscle, read-out: Muscle % ID/g ± SD), 0.1 ± 0.03 %ID/g; in series [1] (pancreas, read-out: Pancreas % ID/g ± SD) it was 17.3 ± 2.87 %ID/g; in series [1] (spleen, read-out: Spleen % ID/g ± SD), 0.55 ± 0.06 %ID/g. In addition, the tissue uptake at 1 h in series [1] (stomach, read-out: Stomach % ID/g ± SD) is 9.54 ± 1.83 %ID/g.
Turning to `C[C@@H](O)[C@H](NC(=O)C1CSSCC(NC(=O)C(Cc2ccccc2)NC(=O)[C@@H](CC(N)=O)NC(=O)C(CC(N)=O)NC(=O)[C@@H](CC(=O)O)NC(=O)C(CC(=O)O)NC(=O)[C@@H](CNC(=O)CN2CCN(CC(=O)O)CCN(CC(=O)O)CCN(CC(=O)O)CC2)NC(=O)C[N+](C)(C)Cc2ccc([Si](F)(C(C)(C)C)C(C)(C)C)cc2)C(=O)N[C@@H](Cc2ccc(O)cc2)C(=O)NC(Cc2c[nH]c3ccccc23)C(=O)N[C@@H](CCCCN)C(=O)N[C@@H]([C@@H](C)O)C(=O)N1)C(=O)O` (stereo partly drawn) (natGa complex, metal not drawn) [[Ga]48], the IC50 at SST2 came to 6.1 ± 0.57 nM.
Molecule `C[C@@H](O)[C@H](NC(=O)C1CSSCC(NC(=O)C(Cc2ccccc2)NC(=O)CNC(=O)CNC(=O)CNC(=O)C(CC(=O)O)NC(=O)[C@@H](CC(=O)O)NC(=O)C(CNC(=O)CN2CCN(CC(=O)O)CCN(CC(=O)O)CCN(CC(=O)O)CC2)NC(=O)[C@@H](CN)NC(=O)CNC(=O)C[N+](C)(C)Cc2ccc([Si](F)(C(C)(C)C)C(C)(C)C)cc2)C(=O)N[C@@H](Cc2ccc(O)cc2)C(=O)NC(Cc2c[nH]c3ccccc23)C(=O)N[C@@H](CCCCN)C(=O)N[C@@H]([C@@H](C)O)C(=O)N1)C(=O)O` (stereo partly drawn) (natLu complex, metal not drawn) [[Lu]52] gave an IC50 at SST2 of 3.51 ± 0.41 nM.
In turn, `C[C@@H](O)[C@H](NC(=O)C1CSSCC(NC(=O)C(Cc2ccccc2)NC(=O)CNC(=O)CNC(=O)CNC(=O)C(CC(=O)O)NC(=O)[C@@H](CC(=O)O)NC(=O)C(CNC(=O)C[N+](C)(C)Cc2ccc([Si](F)(C(C)(C)C)C(C)(C)C)cc2)NC(=O)CN2CCN(CC(=O)O)CCN(CC(=O)O)CCN(CC(=O)O)CC2)C(=O)N[C@@H](Cc2ccc(O)cc2)C(=O)NC(Cc2c[nH]c3ccccc23)C(=O)N[C@@H](CCCCN)C(=O)N[C@@H]([C@@H](C)O)C(=O)N1)C(=O)O` (stereo partly drawn) (natLu complex, metal not drawn) [[Lu]44] returned an IC50 at SST2 of 3.86 ± 0.23 nM.
Take `C[C@@H](O)[C@H](NC(=O)C1CSSCC(NC(=O)C(Cc2ccccc2)NC(=O)CNC(=O)CNC(=O)CNC(=O)C(CC(=O)O)NC(=O)[C@@H](CC(=O)O)NC(=O)C(CNC(=O)CN2CCN(CC(=O)O)CCN(CC(=O)O)CCN(CC(=O)O)CC2)NC(=O)[C@@H](CN)NC(=O)CNC(=O)C[N+](C)(C)Cc2ccc([Si](F)(C(C)(C)C)C(C)(C)C)cc2)C(=O)N[C@@H](Cc2ccc(O)cc2)C(=O)NC(Cc2c[nH]c3ccccc23)C(=O)N[C@@H](CCCCN)C(=O)N[C@@H]([C@@H](C)O)C(=O)N1)C(=O)O` (stereo partly drawn) (natGa complex, metal not drawn) [[Ga]52]: the IC50 on SST2 came out at 3.69 ± 0.34 nM.
Turning to `C[C@@H](O)[C@H](NC(=O)C1CSSCC(NC(=O)C(Cc2ccccc2)NC(=O)CNC(=O)CNC(=O)CNC(=O)C(CC(=O)O)NC(=O)[C@@H](CC(=O)O)NC(=O)C(CNC(=O)CN2CCN(CC(=O)O)CCN(CC(=O)O)CCN(CC(=O)O)CC2)NC(=O)C[N+](C)(C)Cc2ccc([Si](F)(C(C)(C)C)C(C)(C)C)cc2)C(=O)N[C@@H](Cc2ccc(O)cc2)C(=O)NC(Cc2c[nH]c3ccccc23)C(=O)N[C@@H](CCCCN)C(=O)N[C@@H]([C@@H](C)O)C(=O)N1)C(=O)O` (stereo partly drawn) (natLu complex, metal not drawn) [[Lu]50], the IC50 on SST2 was 3.72 ± 0.61 nM.
Molecule `C[C@@H](O)[C@H](NC(=O)C1CSSCC(NC(=O)C(Cc2ccccc2)NC(=O)[C@@H](CC(N)=O)NC(=O)C(CC(N)=O)NC(=O)CNC(=O)C(CC(=O)O)NC(=O)[C@@H](CC(=O)O)NC(=O)C(CNC(=O)CN2CCN(CC(=O)O)CCN(CC(=O)O)CCN(CC(=O)O)CC2)NC(=O)C[N+](C)(C)Cc2ccc([Si](F)(C(C)(C)C)C(C)(C)C)cc2)C(=O)N[C@@H](Cc2ccc(O)cc2)C(=O)NC(Cc2c[nH]c3ccccc23)C(=O)N[C@@H](CCCCN)C(=O)N[C@@H]([C@@H](C)O)C(=O)N1)C(=O)O` (stereo partly drawn) (natGa complex, metal not drawn) [[Ga]49] showed a half-inhibitory concentration (IC50) on SST2 of 6.31 ± 0.99 nM.
Molecule `C[C@@H](O)[C@H](NC(=O)C1CSSCC(NC(=O)C(Cc2ccccc2)NC(=O)[C@@H](CC(N)=O)NC(=O)C(CC(N)=O)NC(=O)[C@@H](CC(=O)O)NC(=O)C(CC(=O)O)NC(=O)[C@@H](CNC(=O)CN2CCN(CC(=O)O)CCN(CC(=O)O)CCN(CC(=O)O)CC2)NC(=O)C[N+](C)(C)Cc2ccc([Si](F)(C(C)(C)C)C(C)(C)C)cc2)C(=O)N[C@@H](Cc2ccc(O)cc2)C(=O)NC(Cc2c[nH]c3ccccc23)C(=O)N[C@@H](CCCCN)C(=O)N[C@@H]([C@@H](C)O)C(=O)N1)C(=O)O` (stereo partly drawn) (natLu complex, metal not drawn) [[Lu]48] showed an IC50 at SST2 of 5.5 ± 1.47 nM.
